Measured values reported in ChEMBL document CHEMBL1201862, “PubChem BioAssay data set” (2004).
Structures can show the parent of a compound that is named as a salt.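 1) Cells in 96-well plates. 2) Compound, 48 h, 5 concentrations. 3) Linear interpolation between surrounding doses. 4) Unreached endpoint = highest concentration. At the GI50, growth is halved.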 Active and inactive are the calls of the source. No stated cut-off is given here; in the data, active = GI50 up to about 1.1 µM and inactive = higher. Non-standard residues stand in square brackets, D forms with d. Residues, ends and D or L forms follow the SMILES beside them. ξ: configuration not given here. *: point of attachment. X18 = COC1=CC(=O)N(C(=O)C(O*)C(C)C)C1Cc1ccccc1; ξNMe2Val = CC(C)C(C(=O)*)N(C)C; NMeV = CN[CH](C(=O)O)C(C)C

Experiments:
Assay in all cases: NCI anticancer screen, dose series, 48 h
NCI-H522 = tested on: NCI-H522
HT-29 = tested on: HT-29
SW-620 = tested on: SW-620
SK-MEL-2 = tested on: SK-MEL-2
KM12 = tested on: KM12
NCI/ADR-RES = tested on: NCI/ADR-RES
RXF 393 = tested on: RXF 393
HCT-15 = tested on: HCT-15
A498 = tested on: A498
MOLT-4 = tested on: MOLT-4
MDA-N = tested on: MDA-N
COLO 205 = tested on: COLO 205
T47D = tested on: T47D
BT-549 = tested on: BT-549
HOP-92 = tested on: HOP-92
HCC 2998 = tested on: HCC 2998
MDA-MB-231 = tested on: MDA-MB-231
NCI-H23 = tested on: NCI-H23
K562 = tested on: K562
OVCAR-3 = tested on: OVCAR-3

SMILES | GI50 (NCI-H522) | GI50 (HT-29) | GI50 (SW-620) | GI50 (SK-MEL-2) | GI50 (KM12) | GI50 (NCI/ADR-RES) | GI50 (RXF 393) | GI50 (HCT-15) | GI50 (A498) | GI50 (MOLT-4) | GI50 (MDA-N) | GI50 (COLO 205) | GI50 (T47D) | GI50 (BT-549) | GI50 (HOP-92) | GI50 (HCC 2998) | GI50 (MDA-MB-231) | GI50 (NCI-H23) | GI50 (K562) | GI50 (OVCAR-3)
c1ccc(CNCCCNCCCCNCCCNCc2ccccc2)cc1 | 1.57 µM (inactive) | 1.92 µM (inactive) | 1.8 µM (inactive) | 14.7 µM (inactive) | 5.52 µM (inactive) | 38.7 µM (inactive) | 12.4 µM (inactive) | 15.8 µM | > 10 µM (inactive) | 0.834 µM (active) | 1.83 µM (inactive) | 1.82 µM (inactive) | 10.8 µM (inactive) | 16.7 µM (inactive) | 1.42 µM (inactive) | 5.66 µM (inactive) | 6.5 µM (inactive) | 2.38 µM (inactive) | 1.67 µM (inactive) | 11.9 µM (inactive)
CCN1C2=NCCN2S(=O)(=O)c2ccccc21 | 59 µM (inactive) | > 100 µM (inactive) | > 100 µM (inactive) | > 100 µM (inactive) | > 100 µM (inactive) | > 100 µM (inactive) | > 100 µM (inactive) | > 100 µM | > 100 µM (inactive) | > 100 µM (inactive) | > 100 µM (inactive) | > 100 µM (inactive) | > 100 µM (inactive) | > 100 µM (inactive) | > 100 µM (inactive) | > 100 µM (inactive) | > 100 µM (inactive) | > 100 µM (inactive) | > 100 µM (inactive) | > 100 µM (inactive)
N#CCCN(CCCN(C(=O)Nc1ccc(NC(=O)N(CCCN(CCC#N)C(N)=O)c2ccccc2)cc1)c1ccccc1)C(N)=O | > 100 µM (inactive) | > 100 µM (inactive) | > 100 µM (inactive) | > 100 µM (inactive) | > 100 µM (inactive) | > 100 µM (inactive) | > 100 µM (inactive) | > 100 µM | > 100 µM (inactive) | > 100 µM (inactive) | > 100 µM (inactive) | > 100 µM (inactive) | > 100 µM (inactive) | > 100 µM (inactive) | > 100 µM (inactive) | > 100 µM (inactive) | > 100 µM (inactive) | > 100 µM (inactive) | > 100 µM (inactive) | > 100 µM (inactive)
O=c1c2ccccc2n2nnc3ccc(NCCCNCCNCCCNc4ccc5nnn6c7ccccc7c(=O)c4c56)c1c32 | 0.234 µM (active) | 0.121 µM (active) | 0.251 µM (active) | > 50 µM (inactive) | 3.24 µM (inactive) | 12.6 µM (inactive) | 1.37 µM (inactive) | 3.33 µM | 16.3 µM (inactive) | 0.0582 µM (active) | 1.38 µM (inactive) | 1.39 µM (inactive) | > 37.4 µM (inactive) | 7.36 µM (inactive) | > 10.6 µM (inactive) | 0.308 µM (active) | 1.01 µM (active) | 3.83 µM (inactive) | 0.215 µM (active) | 6.35 µM (inactive)
CN(CC1(CO)CCC1)c1cc(Cl)nc(N)n1 | > 100 µM (inactive) | > 100 µM (inactive) | > 100 µM (inactive) | > 100 µM (inactive) | > 100 µM (inactive) | > 100 µM (inactive) | > 100 µM (inactive) | > 100 µM | > 100 µM (inactive) | > 100 µM (inactive) | > 100 µM (inactive) | > 100 µM (inactive) | > 100 µM (inactive) | > 100 µM (inactive) | > 100 µM (inactive) | > 100 µM (inactive) | > 100 µM (inactive) | > 100 µM (inactive) | > 100 µM (inactive) | > 100 µM (inactive)
Cc1ccc2c(n1)C(=O)C=CC2=O | 1.91 µM (inactive) | 13.9 µM (inactive) | 3 µM (inactive) | 16.7 µM (inactive) | 21.2 µM (inactive) | 18.1 µM (inactive) | 5.93 µM (inactive) | 9.48 µM | 16.8 µM (inactive) | 2.61 µM (inactive) | 7.4 µM (inactive) | 2.14 µM (inactive) | 1.88 µM (inactive) | 16.5 µM (inactive) | 3.9 µM (inactive) | 16.3 µM (inactive) | 4.72 µM (inactive) | 15.7 µM (inactive) | 3.1 µM (inactive) | 2.71 µM (inactive)
Cc1ccc(S(=O)(=O)/N=C2/N(C)CCCS2(=O)=O)cc1 | > 100 µM (inactive) | > 100 µM (inactive) | > 100 µM (inactive) | > 100 µM (inactive) | > 100 µM (inactive) | > 100 µM (inactive) | > 100 µM (inactive) | > 100 µM | > 100 µM (inactive) | > 100 µM (inactive) | > 100 µM (inactive) | > 100 µM (inactive) | > 100 µM (inactive) | > 100 µM (inactive) | > 100 µM (inactive) | > 100 µM (inactive) | 18 µM (inactive) | > 100 µM (inactive) | > 100 µM (inactive) | > 100 µM (inactive)
NNc1ccccc1Cl | > 100 µM (inactive) | > 100 µM (inactive) | > 100 µM (inactive) | > 100 µM (inactive) | > 100 µM (inactive) | > 100 µM (inactive) | > 100 µM (inactive) | > 100 µM | > 100 µM (inactive) | 36.2 µM (inactive) | > 100 µM (inactive) | 29 µM (inactive) | 59.8 µM (inactive) | > 100 µM (inactive) | > 100 µM (inactive) | > 100 µM (inactive) | > 100 µM (inactive) | > 100 µM (inactive) | 4.34 µM (inactive) | 38.7 µM (inactive)
N=C(N)C(/N=N\c1ccccc1)C(N)=O (stereo not given) | > 100 µM (inactive) | > 100 µM (inactive) | > 100 µM (inactive) | 66.1 µM (inactive) | 59.4 µM (inactive) | > 100 µM (inactive) | 87.3 µM (inactive) | 83.8 µM | 66.5 µM (inactive) | > 100 µM (inactive) | > 100 µM (inactive) | > 100 µM (inactive) | 57.7 µM (inactive) | > 100 µM (inactive) | > 100 µM (inactive) | > 100 µM (inactive) | > 100 µM (inactive) | > 100 µM (inactive) | 35.9 µM (inactive) | > 100 µM (inactive)
OCCCCCNc1nc(O)c2[nH]cnc2n1 | > 100 µM (inactive) | > 100 µM (inactive) | > 100 µM (inactive) | > 100 µM (inactive) | > 100 µM (inactive) | > 100 µM (inactive) | > 10 µM (inactive) | > 100 µM | > 100 µM (inactive) | > 100 µM (inactive) | > 100 µM (inactive) | > 100 µM (inactive) | > 100 µM (inactive) | > 100 µM (inactive) | > 100 µM (inactive) | > 100 µM (inactive) | > 100 µM (inactive) | > 100 µM (inactive) | > 100 µM (inactive) | > 100 µM (inactive)
COC1=CC(=O)N(C(=O)C(OC(=O)C2CCCN2C(=O)C2CCCN2C(=O)C(C(C)C)N(C)C(=O)C(NC(=O)C(C(C)C)N(C)C)C(C)C)C(C)C)C1Cc1ccccc1 (stereo not given) (ξNMe2Val-V[NMeV]PP-X18; configuration not given here) | 0.000347 µM (active) | 0.000573 µM (active) | 0.000469 µM (active) | 0.000902 µM (active) | 0.00238 µM (active) | 0.0234 µM (active) | 0.00164 µM (active) | 0.0014 µM | 0.00424 µM (active) | 0.00102 µM (active) | 3.61e-05 µM (active) | 0.00163 µM (active) | < 0.01 µM (active) | 0.00046 µM (active) | 0.00294 µM (active) | 0.00205 µM (active) | 0.00146 µM (active) | 0.00315 µM (active) | 0.000349 µM (active) | 0.000327 µM (active)
CC(=O)N(O)CCCCCNC(=O)CCC(=O)N(O)CCCCCNC(=O)CCC(=O)N(O)CCCCCN [DEFEROXAMINE HYDROCHLORIDE] | 41.9 µM (inactive) | 36.6 µM (inactive) | 29.1 µM (inactive) | > 92.7 µM (inactive) | 26.7 µM (inactive) | > 72.3 µM (inactive) | 57.4 µM (inactive) | 16.8 µM | > 80.4 µM (inactive) | 11.2 µM (inactive) | 53.2 µM (inactive) | 34.7 µM (inactive) | > 100 µM (inactive) | 57.5 µM (inactive) | > 100 µM (inactive) | 55.7 µM (inactive) | > 100 µM (inactive) | 63.5 µM (inactive) | 57.5 µM (inactive) | 20.9 µM (inactive)
